In PMC2746568 (Journal of medicinal chemistry, 2009):
“Also recorded” adds a separate entry of the source. Blank lines part the entries; values can stand above or below the compound they belong to.

Columns and labels:
Pf 3D7 cells = details: read-out: EC50 against P. falciparum in whole cell assays; cited from earlier work
[1] = Mouse pharmacokinetics after oral dosing; assay type: in vivo, mice; details: for adverse reactions in plasma exposure study: single and repeat dosing; for plasma levels reached after single oral dose: uninfected mice
in vitro = details: human, microsomes
P. berghei = P. berghei mouse in vivo efficacy testing; design: species or system Plasmodium berghei in mice; details: for ill effects from compound administration: oral 100 mg/kg/dose every 4 h × 10, then every 6 h × 6; for impact on parasite blood levels in P. berghei mouse model: oral 100 mg/kg/dose every 4 hours × 10 doses, then every 6 hours × 6 doses
[2] = In vitro human microsomal metabolism; details: for Predicted EH (hepatic extraction ratio): estimated from measured rate of degradation in vitro; for Predicted EH (hepatic extraction ratio) / microsomal CLint at 1 µM: human; for microsomal CLint at 1 µM: pooled human liver microsomes; for Putative metabolites: human liver microsomes, LC/MS
PbDHODH = PbDHODH (Plasmodium berghei, UniProt A0A509AEH5); test: PbDHODH steady-state inhibition assay; assay type: biochemical; details: PbDHODH vs PfDHODH
PfDHODH = PfDHODH (Plasmodium falciparum, UniProt Q08210); details: unsubstituted phenyl; cited from earlier work
PfDHODH, sequence (Q08210 158-569): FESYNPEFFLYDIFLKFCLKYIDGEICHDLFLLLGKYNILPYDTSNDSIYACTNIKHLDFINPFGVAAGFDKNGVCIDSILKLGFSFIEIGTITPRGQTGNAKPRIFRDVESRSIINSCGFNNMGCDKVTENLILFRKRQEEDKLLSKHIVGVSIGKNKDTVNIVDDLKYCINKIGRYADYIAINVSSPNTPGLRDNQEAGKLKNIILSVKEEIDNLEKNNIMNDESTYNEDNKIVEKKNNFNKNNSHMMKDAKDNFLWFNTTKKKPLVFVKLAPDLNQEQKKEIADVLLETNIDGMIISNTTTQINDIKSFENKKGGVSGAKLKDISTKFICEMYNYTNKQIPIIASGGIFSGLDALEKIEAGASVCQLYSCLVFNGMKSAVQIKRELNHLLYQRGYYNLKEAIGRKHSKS

SMILES: Cc1cc(Nc2ccc3ccccc3c2)n2ncnc2n1 [Compound 2, (5-methyl-[1,2,4]triazolo[1,5-a]pyrimidin-7-yl)-naphthalen-2-yl-amine]
EC50 (Pf 3D7 cells): 80 nM | plasma levels at 240 min on day 4 of repeat dosing ([1]; mice, 50 mg/kg oral 1x daily repeat dosing): nearly undetectable | adverse reactions in plasma exposure study ([1]; mice, 50 mg/kg oral): No adverse reactions | plasma levels reached after single oral dose ([1]; 50 mg/kg oral single dose): 2000 to 3000 nM | microsomal CLint (in vitro): 96 µL/min/mg | ill effects from compound administration (P. berghei; infected mice): no major ill effects | impact on parasite blood levels in P. berghei mouse model (P. berghei; 100 mg/kg): no activity; also recorded: neither compound had any impact

SMILES: Cc1cc(Nc2ccc3cc4ccccc4cc3c2)n2ncnc2n1 [Compound 3, (5-Methyl-[1,2,4]triazolo[1,5-a]pyrimidin-7-yl)-anthracen-2-yl-amine]
plasma concentrations after last dose of repeat dosing relative to single dose ([1]; mice, 50 mg/kg oral for 2 to 4 days): significantly reduced | plasma concentrations maintained over 240 min ([1]; mice, 50 mg/kg oral single dose): 1000 to 3000 nM | observed plasma levels ([1]; mice, 50 mg/kg oral, repeat dosing): ~ 1 µM | adverse reactions in plasma exposure study ([1]; mice, 50 mg/kg oral): No adverse reactions | plasma levels reached after single oral dose ([1]; 50 mg/kg oral single dose): 2000 to 3000 nM | ill effects from compound administration (P. berghei; infected mice): no major ill effects | impact on parasite blood levels in P. berghei mouse model (P. berghei): neither compound had any impact | Predicted EH (hepatic extraction ratio) [2]: 0.70 | microsomal CLint at 1 µM [2]: 37 µL/min/mg | IC50 fold higher for PbDHODH than for PfDHODH (PbDHODH): 66 fold

SMILES: Cc1cc(Nc2ccccc2)n2ncnc2n1 [Compound 4]
activity (in words) (PfDHODH): completely inactive

SMILES: Cc1cc(Nc2cccc(F)c2)n2ncnc2n1 [Compound 13, (3-Fluoro-phenyl)-(5-methyl-[1,2,4]triazolo[1,5-a]pyrimidin-7-yl)-amine]
Predicted EH (hepatic extraction ratio) [2]: 0.50 | microsomal CLint at 1 µM [2]: 18 µL/min/mg

SMILES: Cc1cc(Nc2ccc(C#N)c(C(F)(F)F)c2)n2ncnc2n1 [Compound 45, 4-(5-Methyl-[1,2,4]triazolo[1,5-a]pyrimidin-7-ylamino)-2-trifluoromethyl-benzonitrile]
Putative metabolites [2]: no metabolites were detected; also recorded: None detected

SMILES: Cc1cc(Nc2ccc(C(F)(F)F)c(F)c2)n2ncnc2n1 [Compound 47, (3-Fluoro-4-trifluoromethyl-phenyl)-(5-methyl-[1,2,4]triazolo[1,5-a]pyrimidin-7-yl)-amine]
Putative metabolites [2]: no metabolites were detected; also recorded: None detected

Now from value to compound, other results behind:

microsomal CLint (in vitro): 38 µL/min/mg
SMILES: Cc1cc(Nc2cccc(Cl)c2)n2ncnc2n1 [Compound 14, (3-Chloro-phenyl)-(5-methyl-[1,2,4]triazolo[1,5-a]pyrimidin-7-yl)-amine]

Predicted EH (hepatic extraction ratio) [2]: 0.62 | microsomal CLint at 1 µM [2]: 29 µL/min/mg
SMILES: Cc1cc(Nc2cccc(C(F)(F)F)c2)n2ncnc2n1 [Compound 16, (5-Methyl-[1,2,4]triazolo[1,5-a]pyrimidin-7-yl)-(3-trifluoromethyl-phenyl)-amine]

time plasma concentrations maintained above 1 µM (0.29 µg/mL) ([1]; mice, single oral dose 50 mg/kg): 16 h | microsomal CLint (in vitro): 7.5 µL/min/mg
SMILES: Cc1cc(Nc2ccc(C(F)(F)F)cc2)n2ncnc2n1 [Compound 21, (5-Methyl-[1,2,4]triazolo[1,5-a]pyrimidin-7-yl)-(4-trifluoromethyl-phenyl)-amine]
adverse reactions after oral administration ([1]; mice, single oral dose 20 or 50 mg/kg): No adverse reactions | adverse reactions in efficacy study (P. berghei; infected mice, 50 mg/kg oral q.d. or b.i.d. for 4 days): No adverse reactions

Predicted EH (hepatic extraction ratio) [2]: 0.64 | microsomal CLint at 1 µM [2]: 31 µL/min/mg
SMILES: Cc1cc(Nc2ccc(F)c(C)c2)n2ncnc2n1 [Compound 40, (4-Fluoro-3-methyl-phenyl)-(5-methyl-[1,2,4]triazolo[1,5-a]pyrimidin-7-yl)-amine]

Predicted EH (hepatic extraction ratio) [2]: 0.42 | microsomal CLint at 1 µM [2]: 13 µL/min/mg
SMILES: Cc1cc(Nc2ccc(Cl)c(C(F)(F)F)c2)n2ncnc2n1 [Compound 41, (4-Chloro-3-trifluoromethyl-phenyl)-(5-methyl-[1,2,4]triazolo[1,5-a]pyrimidin-7-yl)-amine]

Predicted EH (hepatic extraction ratio) [2]: 0.43 | microsomal CLint at 1 µM [2]: 14 µL/min/mg
SMILES: Cc1cc(Nc2ccc(Br)c(C(F)(F)F)c2)n2ncnc2n1 [Compound 42, (4-Bromo-3-trifluoromethyl-phenyl)-(5-methyl-[1,2,4]triazolo[1,5-a]pyrimidin-7-yl)-amine]
